Series [1] in a line: in vitro. The following applies: human, CRL-8155 lymphoblastoid cell line.
Excerpt: (§1) HepG2 is hepatoma liver tumor cell line. CRL8155 is lymphoblastoid cell line.
Series [2] can be described thus: in vitro. The following applies: human, HepG2 hepatoma cell line.
Excerpt: as §1
Another series has as its system LNCaP95. In words: MTT proliferation assay, LNCaP95. It counts as cell-based. The following applies: Homo sapiens, LNCaP-95; for EC50: Table 1, LNCaP95 (AR+ PCa), unit inferred; for inhibition at 10 µM: read-out: MTT % inhib @ 10 μM LNCaP95. The protocol: Anti-tumor activity was determined by screening a series of compounds against the castrate-resistant, androgen-receptor-positive, prostate cancer cell line LNCaP95. […] Inhibition of proliferation was determined based on the level of LNCaP95 cell growth suppression using an MTT assay (NAD(P)H-dependent cellular oxidoreductase enzymatic activities)) read at 72 and 96 hours after addition of the compounds. […] Each cell line was be tested in quadruplicate.
(Tetrazolium assays rely on reduction of a dye to a coloured formazan, in cell work by metabolically active cells.)

The next series relates to PC3. Nature of the series: MTT proliferation assay, PC3. The following applies: Homo sapiens; for inhibition at 10 µM: PC-3, read-out: MTT % inhib @ 10 μM PC3; for EC50: read-out: EC50 PC3.
The nature of series [3]: Plasma protein binding, mouse. Format: in vitro ADME.
A short description of a further series: PK Oral (MMV). The following applies: for Cmax / Tmax: in vivo. Format: in vivo.
For series [4] the following is noted: background statement; cited from earlier work.
For series [5] the following is noted: background statement; cited from earlier work. This is another data set of the same source.

A word on the CC50: it is the concentration that lowers cell viability or growth by half. A higher CC50 goes with lower toxicity to the cells. By EC50 is commonly meant the concentration needed to bring the measured effect to its halfway point. The fraction unbound is free concentration divided by total concentration. Higher therefore signals much free substance. Broadly, the AUC is concentration integrated over time. Higher therefore signals more exposure. By Cmax is commonly meant the highest concentration seen after dosing. A word on the Tmax: it is the time at which the peak concentration occurs.

As for `CCOc1ccc2cc(-c3cn(CC(C)(C)O)c4ncnc(NC)c34)ccc2c1` [Example 11, 1-(5-(6-ethoxynaphthalen-2-yl)-4-(methylamino)-7H-pyrrolo[2,3-d]pyrimidin-7-yl)-2-methylpropan-2-ol], the CC50 in “in vitro [1]” and in the series “in vitro [2]” was > 80 µM in each case. The EC50 in the series with LNCaP95 is 3 µM; in the series with PC3, > 20 µM. The results for the inhibition at 10 µM in the series on LNCaP95 and in the series with PC3 were 55.6% and 1.6%, respectively. In series [3], the fraction unbound is 0.0019.

Regarding `CNc1ncnc2c1c(-c1ccc(-c3ccccc3)cc1)cn2CC(C)(C)O` [Example 13, 1-(5-(biphenyl-4-yl)-4-(methylamino)-7H-pyrrolo[2,3-d]pyrimidin-7-yl)-2-methylpropan-2-ol], the CC50 in the series “in vitro [1]” and in “in vitro [2]” was > 80 µM in each case. Besides, the EC50 is 12 µM in the series on LNCaP95 and > 20 µM with PC3. The inhibition at 10 µM in the series with LNCaP95 is 40.9%; in the series on PC3, -4.3%.

On to `CNc1ncnc2c1c(-c1ccc(-c3ccc(Br)cc3)cc1)cn2CC(C)(C)OC` [Example 33, 5-(4′-bromobiphenyl-4-yl)-7-(2-methoxy-2-methylpropyl)-N-methyl-7H-pyrrolo[2,3-d]pyrimidin-4-amine], for which, in the series with LNCaP95, it took 5 µM to reach a half-maximal effect (EC50) and the inhibition at 10 µM came to 30.7%. In addition, in the series on PC3, the inhibition at 10 µM worked out at 11.4% and the EC50 was > 20 µM. In addition, the fraction unbound in series [3] was 0.0064.

For the compound `CCOc1ccc2cc(-c3cn(CC(C)(C)OC)c4ncnc(NC)c34)ccc2c1` [Example 18, 5-(6-ethoxynaphthalen-2-yl)-7-(2-methoxy-2-methylpropyl)-N-methyl-7H-pyrrolo[2,3-d]pyrimidin-4-amine], the CC50 in “in vitro [1]” and in the series “in vitro [2]” was > 80 µM in each case. Further, the figures for the EC50 in the series on LNCaP95 and in the series with PC3 were 3 µM and > 20 µM, respectively. For the same compound, the figures for the inhibition at 10 µM with LNCaP95 and in the series on PC3 were 44.9% and 21%, respectively. The compound further gave a fraction unbound in series [3] of 0.0077.

For the compound `COCCOc1ncnc2c1c(-c1ccc(-c3ccccc3)cc1)cn2CC(C)(C)O` [Example 4, 1-(5-(biphenyl-4-yl)-4-(2-methoxyethoxy)-7H-pyrrolo[2,3-d]pyrimidin-7-yl)-2-methylpropan-2-ol], in the series “in vitro [1]”, the CC50 was > 80 µM. Besides, the EC50 was 5 µM with LNCaP95 and > 20 µM in the series on PC3. Moreover, the inhibition at 10 µM came out at 36.3% with LNCaP95 and 13% with PC3.

For the compound `CCOCCNc1ncnc2c1c(-c1ccc3cc(OCC)ccc3c1)cn2CC(C)(C)O` [Example 31, 1-(4-(2-ethoxyethylamino)-5-(6-ethoxynaphthalen-2-yl)-7H-pyrrolo[2,3-d]pyrimidin-7-yl)-2-methylpropan-2-ol], in the series with LNCaP95, a half-maximal effect (EC50) was put at 10 µM and the inhibition at 10 µM was determined as 34.9%. Besides, in the series with PC3, the inhibition at 10 µM amounted to 14.9% and the 50% effective concentration (EC50) is > 20 µM. Besides, in the series “PK Oral (MMV)” (dose 25 mg/kg), the area under the curve (AUC) is 1724 µmol·min/L, the Cmax stood at 7.8 µM and the Tmax is 1 h.

With `CCOc1ccc2cc(-c3cn(CC(C)(C)O)c4ncnc(OCC)c34)ccc2c1` [Example 5, 1-(4-ethoxy-5-(6-ethoxynaphthalen-2-yl)-7H-pyrrolo[2,3-d]pyrimidin-7-yl)-2-methylpropan-2-ol], the CC50 in “in vitro [1]” and in “in vitro [2]” was > 80 µM each time. In addition, the concentration for a half-maximal effect (EC50) in the series with LNCaP95 was 5 µM; in the series on PC3 it was > 20 µM. The results for the inhibition at 10 µM with LNCaP95 and in the series on PC3 were 50.9% and -3.2%, respectively.

With `CNc1ncnc2c1c(-c1ccc(-c3ccccc3)cc1)nn2CC(C)(C)O` [Example 12, 1-(3-(biphenyl-4-yl)-4-(methylamino)-1H-pyrazolo[3,4-d]pyrimidin-1-yl)-2-methylpropan-2-ol], the half-maximal cytotoxic concentration (CC50) in the series “in vitro [1]” and in the series “in vitro [2]” was > 80 µM in each case. In addition, the concentration giving a half-maximal response (EC50) in the series on LNCaP95 was 12 µM; in the series with PC3, > 20 µM. Further, the inhibition at 10 µM in the series on LNCaP95 was 36.7%; with PC3, 8.4%.

With `CNc1ncnc2c1c(-c1cccc(Cl)c1)cn2CC(C)(C)OC` [Example 22, 5-(3-chlorophenyl)-7-(2-methoxy-2-methylpropyl)-N-methyl-7H-pyrrolo[2,3-d]pyrimidin-4-amine], the 50% cytotoxic concentration (CC50) in the series “in vitro [1]” and in the series “in vitro [2]” was > 80 µM throughout. For the same compound, the EC50 in the series with LNCaP95 is 10 µM; in the series with PC3, > 20 µM. For the same compound, the inhibition at 10 µM in the series with LNCaP95 was 40.1%; with PC3 it was 4.3%.

Regarding `CC(C)(C)n1nc(Cc2cccc3ccccc23)c2c(N)ncnc21` [Example 1NM-PP1], the metabolism result in series [4] is “quickly metabolized”. Moreover, the solubility entry in series [5] is “low solubility”.

For `CNc1ncnc2c1c(-c1ccc3cc(OC4CC4)ccc3c1)cn2CC(C)(C)O` [Example 15, 1-(5-(6-cyclopropoxynaphthalen-2-yl)-4-(methylamino)-7H-pyrrolo[2,3-d]pyrimidin-7-yl)-2-methylpropan-2-ol], the CC50 in “in vitro [1]” and in “in vitro [2]” was > 80 µM throughout. For the same compound, the figures for the EC50 in the series on LNCaP95 and in the series on PC3 were 8 µM and > 20 µM, respectively. In addition, the inhibition at 10 µM with LNCaP95 came to 53.2%; in the series on PC3, 2.8%. In series [3], this compound gave an unbound share (fraction unbound) of 0.0017.

As to `CCOc1ncnc2c1c(-c1ccc3cc(OC4CC4)ccc3c1)cn2CC(C)(C)O` [Example 6, 1-(5-(6-cyclopropoxynaphthalen-2-yl)-4-ethoxy-7H-pyrrolo[2,3-d]pyrimidin-7-yl)-2-methylpropan-2-ol], the CC50 in the series “in vitro [1]” is > 40 µM. Moreover, the CC50 in the series “in vitro [2]” was > 40 µM. Moreover, in the series with LNCaP95, the EC50 was determined as 10 µM and the inhibition at 10 µM was found to be 20.3%. In addition, in the series with PC3, the inhibition at 10 µM came to 10.1% and the concentration giving a half-maximal response (EC50) is > 20 µM. In the series “PK Oral (MMV)” (dose 24.6 mg/kg), the AUC turned out to be 400 µmol·min/L, the Cmax stood at 17.6 µM and the time to peak (Tmax) is 1 h.

`CC(C)(O)Cn1cc(-c2ccc3cc(OC4CC4)ccc3c2)c2c(NCCOCCOCCOCCN)ncnc21` [Example 28, 1-(4-(2-(2-(2-(2-aminoethoxy)ethoxy)ethoxy)ethylamino)-5-(6-cyclopropoxynaphthalen-2-yl)-7H-pyrrolo[2,3-d]pyrimidin-7-yl)-2-methylpropan-2-ol]: the CC50 in the series “in vitro [1]” was 15.4 µM; in the series “in vitro [2]” it was 30.7 µM. The EC50 was 4 µM in the series with LNCaP95 and > 20 µM with PC3. The inhibition at 10 µM with LNCaP95 was 43%; in the series with PC3 it was -8.3%.

Regarding `CCOc1ccc2cc(-c3nn(CC(C)(C)O)c4ncnc(NC)c34)ccc2c1` [Example 14, 1-(3-(6-ethoxynaphthalen-2-yl)-4-(methylamino)-1H-pyrazolo[3,4-d]pyrimidin-1-yl)-2-methylpropan-2-ol], the CC50 in “in vitro [1]” and in the series “in vitro [2]” was > 80 µM throughout. For the same compound, the values for the EC50 in the series on LNCaP95 and in the series with PC3 were 12 µM and > 20 µM, respectively. The inhibition at 10 µM with LNCaP95 was 42.7%; in the series with PC3 it was -3.5%. This compound gave a free fraction (fraction unbound) in series [3] of 0.0079.

With `CC(C)Nc1ncnc2c1c(-c1ccc3cc(OC4CC4)ccc3c1)cn2CC(C)(C)O` [Example 43, 1-(5-(6-cyclopropoxynaphthalen-2-yl)-4-(isopropylamino)-7H-pyrrolo[2,3-d]pyrimidin-7-yl)-2-methylpropan-2-ol], the values for the concentration giving a half-maximal response (EC50) with LNCaP95 and with PC3 were 10 µM and 20 µM, respectively.

Take `COCCOc1ncnc2c1c(-c1ccc3cc(OC4CC4)ccc3c1)cn2CC(C)(C)O` [Example 2, 1-(5-(6-cyclopropoxynaphthalen-2-yl)-4-(2-methoxyethoxy)-7H-pyrrolo[2,3-d]pyrimidin-7-yl)-2-methylpropan-2-ol]: the CC50 in “in vitro [1]” was > 40 µM. Also, the CC50 in “in vitro [2]” is > 40 µM. Also, in the series with LNCaP95, the response was half-maximal at 6 µM (EC50) and the inhibition at 10 µM worked out at 32%. Besides, in the series on PC3, the inhibition at 10 µM came out at 12.8% and the EC50 was > 20 µM. Also, in “PK Oral (MMV)” (dose 30.8 mg/kg), the AUC came to 822 µmol·min/L, the peak level (Cmax) was 34.4 µM and the time to peak (Tmax) is 1 h.

For `CCOc1ccc2cc(-c3cn(CC(C)(C)O)c4ncnc(OCCOC)c34)ccc2c1` [Example 3, 1-(5-(6-ethoxynaphthalen-2-yl)-4-(2-methoxyethoxy)-7H-pyrrolo[2,3-d]pyrimidin-7-yl)-2-methylpropan-2-ol], in the series on LNCaP95, the EC50 is 7 µM and the inhibition at 10 µM was determined as 36.5%. Also, in the series with PC3, the inhibition at 10 µM came to 2.9% and the EC50 was > 20 µM. In addition, in “PK Oral (MMV)” (dose 25 mg/kg), the AUC turned out to be 2559 µmol·min/L, the maximum concentration (Cmax) came out at 5.1 µM and the time to peak (Tmax) is 0.667 h.

As to `CNc1ncnc2c1c(-c1ccc3cc(OC(C)C)ccc3c1)cn2CC(C)(C)OC` [Example 32, 5-(6-isopropoxynaphthalen-2-yl)-7-(2-methoxy-2-methylpropyl)-N-methyl-7H-pyrrolo[2,3-d]pyrimidin-4-amine], in the series with LNCaP95, the response was half-maximal at 3 µM (EC50) and the inhibition at 10 µM is 5.1%. Also, in the series with PC3, the inhibition at 10 µM worked out at 14.6% and the 50% effective concentration (EC50) was > 20 µM. The same compound showed an unbound share (fraction unbound) in series [3] of 0.0069.

As to `CCOCCNc1ncnc2c1c(-c1ccc(-c3ccc(Br)cc3)cc1)cn2CC(C)(C)O` [Example 40, 1-(5-(4′-bromobiphenyl-4-yl)-4-(2-ethoxyethylamino)-7H-pyrrolo[2,3-d]pyrimidin-7-yl)-2-methylpropan-2-ol], the half-maximal effective concentration (EC50) is > 10 µM in the series on LNCaP95 and > 20 µM with PC3. In addition, the inhibition at 10 µM in the series with LNCaP95 was -0.2%; with PC3, 11.1%.

(Values after patent publication US12522606B2, “Modified pyrrolo- and pyrazolo-pyrimidines for prostate cancer therapy” (University of Washington, priority 2020, dated 2026).)
